Key:
[1] = biological target: RAC-alpha serine/threonine-protein kinase (Homo sapiens, UniProt P31749); assay: Inhibition of Akt by fluorescence polarization assay
PC-3 = assay: Antiproliferative activity against human PC3 cell line by MTT assay; format: functional, cell-based
BXPC-3 = assay: Antiproliferative activity against human BxPC3 cell line by MTT assay; format: functional, cell-based
COLO357 = assay: Antiproliferative activity against human COLO357 cell line by MTT assay; format: functional, cell-based
BT-20 = assay: Antiproliferative activity against human BT20 cell line by MTT assay; format: functional, cell-based

RAC-alpha serine/threonine-protein kinase, sequence (P31749 whole entry): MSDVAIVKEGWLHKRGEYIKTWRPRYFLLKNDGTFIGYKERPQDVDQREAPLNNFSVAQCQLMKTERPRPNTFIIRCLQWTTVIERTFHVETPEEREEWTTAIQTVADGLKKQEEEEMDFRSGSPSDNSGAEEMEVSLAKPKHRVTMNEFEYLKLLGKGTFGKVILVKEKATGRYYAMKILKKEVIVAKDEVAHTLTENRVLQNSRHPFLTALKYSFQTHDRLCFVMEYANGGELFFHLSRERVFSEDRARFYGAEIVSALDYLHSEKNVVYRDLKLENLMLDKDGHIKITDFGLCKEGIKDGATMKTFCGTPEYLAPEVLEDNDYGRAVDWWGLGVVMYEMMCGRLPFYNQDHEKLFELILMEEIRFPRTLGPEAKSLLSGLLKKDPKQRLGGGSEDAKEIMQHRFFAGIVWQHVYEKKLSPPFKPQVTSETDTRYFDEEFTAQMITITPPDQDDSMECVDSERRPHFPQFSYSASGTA

## O=c1c(-c2ccc(O)cc2)coc2cc(O)cc(O)c12 [GENISTEIN]
[1]
  IC50: > 70 µM
PC-3
  IC50: 50 µM
BXPC-3
  IC50: 30 µM
COLO357
  IC50: 50 µM
BT-20
  IC50: 46 µM

— ChEMBL document CHEMBL1138054, “Synthesis, molecular characterization, and biological activity of novel synthetic derivatives of chromen-4-one in human cancer cells” (J Med Chem, 2006)
